# Measurements published in the NIST ThermoML archive (doi:10.1021/je050328d).
# Where “and” joins values, the source holds several entries; their conditions need not be identical. Equal entries are not always repeated. Numbers after ± are expanded uncertainties.
# Conditions: meniscus disappearance in a closed cell
compound,measurement,setting,value
CC(C)C [2-methylpropane],mass density,"390.4 K, Liquid",388.9 ± 1.2 kg/m3
same,mass density,"391.4 K, Gas",90.6 ± 1.2 kg/m3
same,mass density,"393.73 K, Gas",98.2 ± 1.2 kg/m3
same,mass density,"394.98 K, Gas",101.1 ± 1.2 kg/m3
same,mass density,"397.49 K, Liquid",358.7 ± 1.2 kg/m3
same,mass density,"398.81 K, Gas",114.2 ± 1.2 kg/m3
same,mass density,"400.69 K, Liquid",341.9 ± 1.2 kg/m3
same,mass density,"402.34 K, Liquid",330.3 ± 1.2 kg/m3
same,mass density,"404.54 K, Gas",142 ± 1.2 kg/m3
same,mass density,"405.22 K, Liquid",308.1 ± 1.2 kg/m3
same,mass density,"406.17 K, Gas",160.4 ± 1.2 kg/m3
same,mass density,"406.71 K, Liquid",289.4 ± 1.3 kg/m3
same,mass density,"406.96 K, Liquid",284.3 ± 1.3 kg/m3
same,mass density,"407.03 K, Gas",173.9 ± 1.3 kg/m3
same,mass density,"407.21 K, Gas",179.1 ± 1.3 kg/m3
same,mass density,"407.52 K, Liquid",271 ± 1.5 kg/m3
same,mass density,"407.65 K, Gas",192.9 ± 2.2 kg/m3
same,mass density,"407.75 K, Liquid",244.3 ± 6.9 kg/m3
same,mass density,"407.76 K, Gas",202.3 ± 4.2 kg/m3
same,mass density,"407.79 K, Gas",219.3 ± 11 kg/m3 and 225.4 ± 14 kg/m3
same,mass density,"407.8 K, Liquid",229.4 ± 6.9 kg/m3
